One assay deals with Ba/F3 LMNA-NTRK1 cells. Description: Assay for inhibiting the proliferation of Ba/F3 LMNA-NTRK1 cells (CCK-8). The assay is classed as cell-based. Particulars: Mus musculus, BaF3. On the procedure: In particular, the method of the assay of small molecular compounds for inhibiting cell proliferation is as follows: • 1. Cells cultured to a logarithmic growth phase (adherent cells need to be digested with trypsin and neutralized) were taken, pipetted evenly, transferred to a 15 mL centrifuge tube, and centrifuged at 1000 rpm at room temperature for 4 minutes; • 2. The supernatant was discarded; 5 mL of complete medium was added and pipetted evenly; 10 μL of cell suspension was taken out, mixed well with 10 μL of 0.4% trypan blue, and counted under a cell counter; the proportion of living cells was ensured to be above 90%; • 3. 80 μL of cell suspension per well was seeded into a 96-well plate according to the conditions shown in the attached table, and cultured overnight; in the outer 36 wells of the 96-well plate, no cells were added but only sterile water was added; only the inner 60 wells were used for cell assay and control; • 4. […] 20 μL of the corresponding compounds with different concentration gradients were added to each well of assay wells of the 96-well plate; 20 μL of complete medium was added to positive and negative control wells and shaken well; and the final concentration of DMSO in each well was 0.25%; • 6. After 72 hours of incubation, 10 μL of CCK-8 reagent was added to each well and further incubated at 37° C. for 1-2 hours; and the OD value was read at 450 nm; • 7. Cell survival rate (%)=[(As−Ab)/(Ac−Ab)]*100% • As: Assay well (medium containing cells, CCK-8, compound), • Ac: Control well (medium containing cells, CCK-8), • Ab: Blank well (CCK-8, medium without cell and compound), • 8. The values were imported into Graphpad Prism 5 software for IC50 calculation.

In a further assay the target is c-MET kinase (Homo sapiens (Human), UniProt P08581). Description: Assay of small molecular compounds for inhibiting the activity of c-MET kinase (LANCE TR-FRET). To be noted: read-out: CMET IC50. The assay is classed as biochemical. A digest of the protocol:
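LANCE TR-FRET assay with c-MET at 1 nM final after a 5 min room-temperature preincubation with compound (11-point, 3-fold series, 2500–0.042 nM final, 4% DMSO). ULight-JAK-1 (Tyr1023) peptide (100 nM final) and ATP (10 μM final) reacted 60 min in the dark. Inhibition was taken relative to controls, then IC50 fitted.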
(In general: TR-FRET usually uses a lanthanide donor and a delayed reading to cut background.)

Another assay deals with MER kinase (Homo sapiens (Human), UniProt Q12866). Briefly: Assay of small molecular compounds for inhibiting the activity of MER kinase (LANCE TR-FRET). The assay is classed as biochemical. A digest of the protocol:
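MER kinase preincubated 5 min at RT with compound (11 points, 0.042-2500 nM final), then ULight-poly GT and ATP added (4× stocks 200 nM and 20 μM) for 60 min at RT, 1% DMSO. Phosphorylation detected by LANCE TR-FRET; IC50 from % inhibition versus controls.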

A further assay concerns Ba/F3-AXL cells. Description: Assay for inhibiting the proliferation of Ba/F3-AXL cells (CCK-8). Particulars: 72 hours of incubation, medium with 100 ng/mL hGas6, CCK-8. The assay is classed as cell-based. On the procedure:
The values were then imported into Graphpad Prism 5 software for curve fitting, and IC50 was calculated.

The target of the next assay is TRKA kinase (Homo sapiens (Human), UniProt P04629). Briefly: Assay of small molecular compounds for inhibiting the activity of TRKA kinase (LANCE TR-FRET). The assay is classed as biochemical. A digest of the protocol: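 LANCE TR-FRET with ULight-TK peptide; compounds pre-incubated 5 min with TRKA (2× solution 2 nM), then substrate/ATP added (4× mix: 400 nM peptide, 40 μM ATP). Reaction 60 min at room temperature in dark, 1% DMSO final; stopped, detection developed 60 min, signal read.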
Chain of TRKA kinase (P04629 33-796): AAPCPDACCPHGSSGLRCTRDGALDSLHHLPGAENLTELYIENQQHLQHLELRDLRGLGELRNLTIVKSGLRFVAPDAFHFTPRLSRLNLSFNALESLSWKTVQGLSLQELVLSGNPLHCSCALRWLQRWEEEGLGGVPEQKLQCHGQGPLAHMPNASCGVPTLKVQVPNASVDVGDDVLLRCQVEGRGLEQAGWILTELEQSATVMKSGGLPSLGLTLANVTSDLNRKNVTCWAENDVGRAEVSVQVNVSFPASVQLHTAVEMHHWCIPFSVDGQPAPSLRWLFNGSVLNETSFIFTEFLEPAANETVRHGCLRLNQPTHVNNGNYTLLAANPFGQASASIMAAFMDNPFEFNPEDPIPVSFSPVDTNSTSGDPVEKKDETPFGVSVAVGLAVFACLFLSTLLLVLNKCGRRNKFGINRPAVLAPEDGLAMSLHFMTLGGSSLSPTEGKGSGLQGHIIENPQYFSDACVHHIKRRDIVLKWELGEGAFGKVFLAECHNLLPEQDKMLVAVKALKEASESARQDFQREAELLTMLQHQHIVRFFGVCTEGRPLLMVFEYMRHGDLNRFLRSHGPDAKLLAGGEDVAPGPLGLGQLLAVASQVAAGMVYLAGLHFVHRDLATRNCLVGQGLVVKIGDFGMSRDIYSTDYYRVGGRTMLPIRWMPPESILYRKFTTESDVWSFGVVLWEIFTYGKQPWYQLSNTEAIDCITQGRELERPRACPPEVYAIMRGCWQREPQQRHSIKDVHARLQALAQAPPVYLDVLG

Another assay has as its target VEGFR-2 kinase (Homo sapiens (Human), UniProt P35968). Description: Assay of small molecular compounds for inhibiting the activity of VEGFR-2 kinase (LANCE TR-FRET). To be noted: read-out: VEGFR2 IC50. The assay is classed as biochemical. On the procedure: The assay is based on the LANCE TR-FRET technology of Perkin Elmer Inc., and the assay method is as follows: • 1. Dilution of compounds: a total of 11 concentrations were obtained using a 3-fold gradient dilution from the highest concentration of 2500 nM (the maximum final concentration of the drug used in this assay was 2500 nM, and the minimum final concentration was 0.042 nM). • 2. 2.5 μL of the gradient-diluted compounds were taken with a transfer pipette to a 384-well plate. • 3. Addition of enzyme: 5 μL of 2×VEGFR2 kinase solution (with a concentration of 0.5 nM) was taken with a transfer pipette to the corresponding reaction well of the 384-well plate, mixed well and pre-reacted at room temperature for 30 minutes. • 4. 2.5 μL 4× Ultra ULight™-JAK-1 (Tyr1023) Peptide (with a concentration of 200 nM)/ATP (with a concentration of 40 μM) mixture was taken with a transfer pipette to the corresponding reaction well of the 384-well plate. • 5. Negative control: 2.5 μL/well 4× substrate/ATP mixture and 7.5 μL 1× Kinase Assay Buffer were added to the wells of the 384-well plate. • 6. Positive control: 2.5 μL/well 4× substrate/ATP mixture, 2.5 μL/well 1× Kinase Assay Buffer containing 16% DMSO, and 5 μL/well 2×VEGFR-2 kinase solution were added to the 384-well plate. The final concentration of DMSO in the reaction system was 4%. • 7. The mixture was mixed well and then centrifuged and reacted at room temperature in dark for 60 min. • 8. Termination of the enzymatic reaction: 5 μL of 4× stop solution was taken with a transfer pipette to the wells of the 384-well plate, mixed and then centrifuged, and reacted at room temperature for 5 min. • 9. Development of the reaction: 5 μL of 4× detection solution was taken with a transfer pipette to the wells of the 384-well plate for color development, and the mixture was mixed and then centrifuged and reacted at room temperature for 60 min. • 10. The 384-well plate was placed into the Envision plate reader and the signal was detected using the appropriate program. • 11. Analysis and processing of the raw data: The drug concentrations and the corresponding inhibition rates were input into GraphPad Prism5 for calculation, and the inhibition rate of the compounds were calculated as follows: inhibition rate (%)=(reading of positive well−reading of experimental well)/(reading of positive control well−reading of negative control well)×100%. Processing with GraphPad Prism5 software yielded the corresponding IC50 values (the concentration of the compound at which 50% of the highest inhibition of the enzyme is achieved).

A further assay deals with MHCC97H cells. Briefly: Assay for inhibiting the proliferation of MHCC97H cells (CCK-8). The assay is classed as cell-based. Particulars: Homo sapiens. The method, then:
In particular, the method of the assay of small molecular compounds for inhibiting cell proliferation is as follows: • 1. Cells cultured to a logarithmic growth phase (adherent cells need to be digested with trypsin and neutralized) were taken, pipetted evenly, transferred to a 15 mL centrifuge tube, and centrifuged at 1000 rpm at room temperature for 4 minutes; • 2. The supernatant was discarded; 5 mL of complete medium was added and pipetted evenly; 10 μL of cell suspension was taken out, mixed well with 10 μL of 0.4% trypan blue, and counted under a cell counter; the proportion of living cells was ensured to be above 90%; • 3. 80 μL of cell suspension per well was seeded into a 96-well plate according to the conditions shown in the attached table, and cultured overnight; in the outer 36 wells of the 96-well plate, no cells were added but only sterile water was added; only the inner 60 wells were used for cell assay and control; • 4. 5×compound dilution: the compounds were serially diluted 3-fold to obtain a total of 9 concentrations; 80-fold overall dilution was completed with complete medium, the resulting concentration was 5 times the final drug concentration, and DMSO concentration was 1.25%; • 5. 20 μL of the corresponding compounds with different concentration gradients were added to each well of assay wells of the 96-well plate; 20 μL of complete medium was added to positive and negative control wells and shaken well; and the final concentration of DMSO in each well was 0.25%; • 6. After 72 hours of incubation, 10 μL of CCK-8 reagent was added to each well and further incubated at 37° C. for 1-2 hours; and the OD value was read at 450 nm; • 7. Cell survival rate (%)=[(As−Ab)/(Ac−Ab)]*100% • As: Assay well (medium containing cells, CCK-8, compound), • Ac: Control well (medium containing cells, CCK-8), • Ab: Blank well (CCK-8, medium without cell and compound), • 8. The values were imported into Graphpad Prism 5 software for IC50 calculation.

Molecules are shown by their SMILES.

Chain of c-MET kinase (P08581 25-1390): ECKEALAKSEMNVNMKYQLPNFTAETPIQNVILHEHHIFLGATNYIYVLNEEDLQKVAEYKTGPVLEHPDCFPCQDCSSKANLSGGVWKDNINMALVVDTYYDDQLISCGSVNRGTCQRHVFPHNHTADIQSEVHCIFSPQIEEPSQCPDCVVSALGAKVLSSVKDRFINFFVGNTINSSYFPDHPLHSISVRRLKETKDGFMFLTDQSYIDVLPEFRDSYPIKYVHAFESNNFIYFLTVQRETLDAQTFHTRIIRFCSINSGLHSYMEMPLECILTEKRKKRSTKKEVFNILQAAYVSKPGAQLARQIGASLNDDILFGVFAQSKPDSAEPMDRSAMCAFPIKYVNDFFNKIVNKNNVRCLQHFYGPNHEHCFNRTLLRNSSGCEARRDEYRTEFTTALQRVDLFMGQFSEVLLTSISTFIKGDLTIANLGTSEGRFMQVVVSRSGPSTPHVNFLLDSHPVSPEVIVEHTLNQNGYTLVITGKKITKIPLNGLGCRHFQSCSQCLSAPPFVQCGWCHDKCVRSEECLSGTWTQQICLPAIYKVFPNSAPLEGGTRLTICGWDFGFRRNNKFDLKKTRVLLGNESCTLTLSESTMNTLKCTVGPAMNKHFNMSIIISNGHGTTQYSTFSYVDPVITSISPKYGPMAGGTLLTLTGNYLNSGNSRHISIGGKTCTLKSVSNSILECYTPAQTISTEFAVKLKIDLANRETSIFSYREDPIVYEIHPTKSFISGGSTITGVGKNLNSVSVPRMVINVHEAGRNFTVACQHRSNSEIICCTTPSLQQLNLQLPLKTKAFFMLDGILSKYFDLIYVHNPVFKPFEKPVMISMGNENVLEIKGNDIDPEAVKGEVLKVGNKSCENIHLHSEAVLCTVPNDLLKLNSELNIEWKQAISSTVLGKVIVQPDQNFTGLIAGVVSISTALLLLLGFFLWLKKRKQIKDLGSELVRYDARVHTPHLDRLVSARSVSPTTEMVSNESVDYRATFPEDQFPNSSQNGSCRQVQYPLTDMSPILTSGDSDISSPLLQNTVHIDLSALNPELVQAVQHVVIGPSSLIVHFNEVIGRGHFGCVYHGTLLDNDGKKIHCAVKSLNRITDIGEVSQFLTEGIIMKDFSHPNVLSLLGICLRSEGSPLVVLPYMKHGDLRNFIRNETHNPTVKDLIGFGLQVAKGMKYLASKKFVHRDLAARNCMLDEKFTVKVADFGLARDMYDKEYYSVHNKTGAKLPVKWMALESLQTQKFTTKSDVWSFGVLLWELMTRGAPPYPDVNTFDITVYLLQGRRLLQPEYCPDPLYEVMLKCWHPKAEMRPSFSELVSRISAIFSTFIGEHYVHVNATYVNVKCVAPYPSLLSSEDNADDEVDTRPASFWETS
Chain of VEGFR-2 kinase (P35968 20-1356): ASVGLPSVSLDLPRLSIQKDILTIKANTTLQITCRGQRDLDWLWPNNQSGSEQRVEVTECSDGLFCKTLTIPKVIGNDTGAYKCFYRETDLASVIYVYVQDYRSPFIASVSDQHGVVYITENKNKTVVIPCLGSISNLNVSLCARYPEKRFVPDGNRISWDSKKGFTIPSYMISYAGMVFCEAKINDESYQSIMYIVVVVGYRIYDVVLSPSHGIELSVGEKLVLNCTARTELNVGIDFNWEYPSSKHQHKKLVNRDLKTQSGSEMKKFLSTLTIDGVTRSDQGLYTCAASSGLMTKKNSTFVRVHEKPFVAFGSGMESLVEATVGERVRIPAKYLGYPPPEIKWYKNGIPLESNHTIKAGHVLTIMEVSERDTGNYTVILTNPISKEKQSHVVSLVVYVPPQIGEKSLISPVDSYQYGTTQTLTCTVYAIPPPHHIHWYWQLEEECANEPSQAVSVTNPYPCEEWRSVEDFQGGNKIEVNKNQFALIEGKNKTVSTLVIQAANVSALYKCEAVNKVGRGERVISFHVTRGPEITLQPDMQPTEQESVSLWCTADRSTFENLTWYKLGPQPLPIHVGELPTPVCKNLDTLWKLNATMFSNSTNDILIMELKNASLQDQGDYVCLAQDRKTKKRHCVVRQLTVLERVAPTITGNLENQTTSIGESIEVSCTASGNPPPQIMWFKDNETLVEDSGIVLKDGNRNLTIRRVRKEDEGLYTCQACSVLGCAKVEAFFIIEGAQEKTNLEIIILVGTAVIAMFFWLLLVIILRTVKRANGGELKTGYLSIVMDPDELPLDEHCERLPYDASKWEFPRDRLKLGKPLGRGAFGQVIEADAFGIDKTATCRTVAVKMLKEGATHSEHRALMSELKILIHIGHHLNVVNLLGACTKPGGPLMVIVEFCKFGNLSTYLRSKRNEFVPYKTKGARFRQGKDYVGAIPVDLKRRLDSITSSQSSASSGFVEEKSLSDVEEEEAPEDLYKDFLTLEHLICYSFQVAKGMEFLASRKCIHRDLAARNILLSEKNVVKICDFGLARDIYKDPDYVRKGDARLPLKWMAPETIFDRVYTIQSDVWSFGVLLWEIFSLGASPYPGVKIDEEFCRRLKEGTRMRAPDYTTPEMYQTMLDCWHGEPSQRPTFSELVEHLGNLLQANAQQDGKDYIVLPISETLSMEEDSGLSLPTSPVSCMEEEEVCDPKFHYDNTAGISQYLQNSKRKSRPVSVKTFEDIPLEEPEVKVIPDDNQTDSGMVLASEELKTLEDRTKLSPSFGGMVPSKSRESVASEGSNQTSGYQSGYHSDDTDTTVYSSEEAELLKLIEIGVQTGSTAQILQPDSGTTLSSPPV
Chain of MER kinase (Q12866 21-999): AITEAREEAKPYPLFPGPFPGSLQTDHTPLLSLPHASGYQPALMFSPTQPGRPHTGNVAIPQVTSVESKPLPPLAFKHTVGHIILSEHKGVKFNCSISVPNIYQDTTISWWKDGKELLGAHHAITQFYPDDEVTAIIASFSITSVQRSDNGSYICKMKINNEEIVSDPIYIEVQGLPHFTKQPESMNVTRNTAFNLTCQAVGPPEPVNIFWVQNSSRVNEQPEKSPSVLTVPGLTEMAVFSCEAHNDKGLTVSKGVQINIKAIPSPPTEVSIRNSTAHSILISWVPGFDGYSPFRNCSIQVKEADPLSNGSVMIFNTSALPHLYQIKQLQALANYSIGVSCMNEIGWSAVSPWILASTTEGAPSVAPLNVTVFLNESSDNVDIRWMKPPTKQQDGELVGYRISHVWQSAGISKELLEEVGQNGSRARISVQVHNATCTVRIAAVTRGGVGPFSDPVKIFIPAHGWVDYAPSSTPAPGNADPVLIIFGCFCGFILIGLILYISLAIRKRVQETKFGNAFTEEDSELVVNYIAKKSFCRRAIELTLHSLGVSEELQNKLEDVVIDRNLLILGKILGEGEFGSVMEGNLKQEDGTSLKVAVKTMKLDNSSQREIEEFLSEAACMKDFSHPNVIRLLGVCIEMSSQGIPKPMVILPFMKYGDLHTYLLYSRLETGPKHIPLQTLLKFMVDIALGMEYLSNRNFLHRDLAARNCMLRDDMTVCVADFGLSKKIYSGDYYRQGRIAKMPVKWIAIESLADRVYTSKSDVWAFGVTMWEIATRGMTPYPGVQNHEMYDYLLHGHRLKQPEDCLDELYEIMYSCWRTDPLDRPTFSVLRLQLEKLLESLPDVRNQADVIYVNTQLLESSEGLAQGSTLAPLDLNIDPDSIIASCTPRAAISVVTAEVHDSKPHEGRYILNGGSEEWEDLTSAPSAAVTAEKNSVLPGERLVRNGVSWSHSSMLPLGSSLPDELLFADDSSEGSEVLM

As to `Cc1cc(F)ccc1-n1ccc(C(=O)Nc2ccc(Oc3ccnc4cc(OCCCN5CCOCC5)c5c(c34)OCCO5)c(F)c2)n1` [Example 26, 1-(4-fluoro-2-methylphenyl)-N-(3-fluoro-4-((5-(3-morpholinopropoxy)-2,3-dihydro-[1,4]dioxino[2,3-f]quinolin-10-yl)oxy)phenyl)-1H-pyrazole-3-carboxamide], the IC50 in the assay on Ba/F3 LMNA-NTRK1 cells is below 0.05 µM; at c-MET kinase, at most 0.05 µM; against MER kinase, 0.05 to 0.5 µM; with Ba/F3-AXL cells, below 0.05 µM; against TRKA kinase it was below 0.05 µM.
For `CCOc1cn(-c2ccc(F)cc2C)nc1C(=O)Nc1ccc(Oc2ccnc3cc(OCCCN4CCOCC4)c4c(c23)OCCO4)c(F)c1` [Example 28, 1-(4-fluoro-2-methylphenyl)-N-(3-fluoro-4-((5-(3-morpholinopropoxy)-2,3-dihydro-[1,4]dioxino[2,3-f]quinolin-10-yl)oxy)phenyl)-4-ethoxy-1H-pyrazole-3-carboxamide], the IC50 is below 0.05 µM in the assay with Ba/F3 LMNA-NTRK1 cells; at most 0.05 µM on c-MET kinase; at most 0.05 µM at MER kinase; below 0.05 µM in the assay on Ba/F3-AXL cells; below 0.05 µM at TRKA kinase.
As to `CC(C)n1cc(C(=O)Nc2ccc(Oc3ccnc4cc(OCCCCCCN(C)C)c5c(c34)OCCO5)c(F)c2)c(=O)n(-c2ccc(F)cc2)c1=O` [Example 85, N-(3-fluoro-4-((5-((6-dimethylamino)hexyloxy)-2,3-dihydro-[1,4]dioxino[2,3-f]quinolin-10-yl)oxy)phenyl)-3-(4-fluorophenyl)-1-isopropyl-2,4-dioxo-1,2,3,4-tetrahydropyrimidine-5-carboxamide], the 50% inhibitory concentration (IC50) at VEGFR-2 kinase is 0.05 to 0.5 µM; in the assay on Ba/F3 LMNA-NTRK1 cells it was below 0.05 µM; on c-MET kinase, 0.05 to 0.5 µM; in the assay with Ba/F3-AXL cells it was below 0.05 µM.
On to `COc1cc2nccc(Oc3ccc(NC(=O)c4cccn(-c5ccc(F)cc5)c4=O)c(Cl)c3)c2c2c1OCCO2` [Example 123, N-(2-chloro-4-((5-methoxy-2,3-dihydro-[1,4]dioxino[2,3-f]quinolin-10-yl)oxy)phenyl)-1-(4-fluorophenyl)-2-oxo-1,2-dihydropyridine-3-carboxamide], for which the concentration for half-maximal inhibition (IC50) at VEGFR-2 kinase was above 5 µM; in the assay with Ba/F3 LMNA-NTRK1 cells it was below 0.05 µM; against MER kinase, at most 0.05 µM; with Ba/F3-AXL cells, below 0.05 µM; against TRKA kinase, below 0.05 µM.
Consider `COc1cc2nccc(Oc3ccc(NC(=O)c4c(OC)ccn(-c5ccc(F)cc5)c4=O)c(Cl)c3)c2c2c1OCCO2` [Example 124, N-(2-chloro-4-((5-methoxy-2,3-dihydro-[1,4]dioxino[2,3-f]quinolin-10-yl)oxy)phenyl)-1-(4-fluorophenyl)-4-methoxy-2-oxo-1,2-dihydropyridine-3-carboxamide], for which the half-inhibitory concentration (IC50) was 0.5 to 5 µM on VEGFR-2 kinase; below 0.05 µM in the assay with Ba/F3 LMNA-NTRK1 cells; at most 0.05 µM on MER kinase; below 0.05 µM in the assay with Ba/F3-AXL cells; below 0.05 µM on TRKA kinase.
Take `CCc1cc(Oc2ccnc3cc(OCCOC)c4c(c23)OCCO4)c(F)cc1NC(=O)c1cn(C)c(=O)n(-c2ccc(F)cc2)c1=O` [Example 181, N-(5-fluoro-4-((5-(2-methoxyethoxy)-2,3-dihydro-[1,4]dioxino[2,3-f]quinolin-10-yl)oxy)-2-ethylphenyl)-3-(4-fluorophenyl)-1-methyl-2,4-dioxo-1,2,3,4-tetrahydropyrimidine-5-carboxamide]: the concentration for half-maximal inhibition (IC50) is 0.05 to 0.2 µM with MHCC97H cells, at most 0.05 µM on c-MET kinase and below 0.05 µM on TRKA kinase.
For the compound `CCc1cc(Oc2ccnc3cc(OCCOC)c4c(c23)OCCO4)c(F)cc1NC(=O)c1cn(CC)c(=O)n(-c2ccc(F)cc2)c1=O` [Example 182, N-(5-fluoro-4-((5-(2-methoxyethoxy)-2,3-dihydro-[1,4]dioxino[2,3-f]quinolin-10-yl)oxy)-2-ethylphenyl)-3-(4-fluorophenyl)-1-ethyl-2,4-dioxo-1,2,3,4-tetrahydropyrimidine-5-carboxamide], the results for the IC50 in the assay on MHCC97H cells, on c-MET kinase and at TRKA kinase were at most 0.05 µM, at most 0.05 µM and 0.05 to 0.5 µM, respectively.
For `COCCOc1cc2nccc(Oc3cc(C(C)C)c(NC(=O)c4cn(C)c(=O)n(-c5ccc(F)cc5)c4=O)cc3F)c2c2c1OCCO2` [Example 183, N-(5-fluoro-4-((5-(2-methoxyethoxy)-2,3-dihydro-[1,4]dioxino[2,3-f]quinolin-10-yl)oxy)-2-isopropylphenyl)-3-(4-fluorophenyl)-1-methyl-2,4-dioxo-1,2,3,4-tetrahydropyrimidine-5-carb oxamide], the values for the 50% inhibitory concentration (IC50) in the assay with MHCC97H cells, on c-MET kinase and at TRKA kinase were above 1 µM, 0.05 to 0.5 µM and 0.05 to 0.5 µM, respectively.
Take `CCn1cc(C(=O)Nc2cc(F)c(Oc3ccnc4cc(OCCOC)c5c(c34)OCCO5)cc2C(C)C)c(=O)n(-c2ccc(F)cc2)c1=O` [Example 184, N-(5-fluoro-4-((5-(2-methoxyethoxy)-2,3-dihydro-[1,4]dioxino[2,3-f]quinolin-10-yl)oxy)-2-isopropylphenyl)-3-(4-fluorophenyl)-1-ethyl-2,4-dioxo-1,2,3,4-tetrahydropyrimidine-5-carboxamide]: the figures for the half-inhibitory concentration (IC50) in the assay with MHCC97H cells and against TRKA kinase were above 1 µM and 0.05 to 0.5 µM, respectively.

In general, IC50 refers to the concentration that gives 50% inhibition.

The values above are taken from US12202835B2, “Substituted aromatic ring-linked dioxinoquinazolines and dioxinoquinolines as kinase inhibitors” (BEIJING SCITECH-MQ PHARMACEUTICALS LIMITED, priority 2018, dated 2025).
